Results published in patent US20180186815A1, “PHARMACEUTICAL COMPOSITIONS, METHODS FOR THEIR PREPARATION AND THEIR USE IN THE TREATMENT OF CANCER” (Urifer Ltd., priority 2016, published 2018).
Like-named read-outs stand apart in the source and are kept apart here.

Assays:
Type in all cases: cell-based
[1] = tested on: colon cancer cell line HCT 116; assay: Growth profile / viability of HCT116 colon cancer cells, XTT test; settings: Homo sapiens, HCT-116, 96 h, Control DMSO = 100%, read-out: percentage of viable cells, HCT116
Procedure: (§1) The effect of the compounds Z522-XXX on the growth profile of cancer cells which express Fer was tested. The cells that were tested were: the colon cancer cell lines HT29 and HCT 116, RKO. The effect of each of the compounds on FS cells, a non malingnant fibroblastic cell line, was also studied.
(§2) Generally, cells were seeded in 96 wells microplates and were left to grow untreated overnight. Each of the compounds was dissolved in DMSO and was then added to each well in a final concentration of 5 μM. The concentration of DMSO in each well was 0.4% v/v. Untreated cells and cells subjected to 0.4% DMSO alone, served as controls. The percentage of viable cells in each well was determined 96 hours after compounds addition, using the XTT test (Berridge, M. V. et al, 2005).

[2] = tested on: colon cancer cell line HT29; assay: Growth profile / viability of HT29 colon cancer cells, XTT test; settings: Homo sapiens, HT-29, 96 h, Control DMSO = 100%, read-out: percentage of viable cells, HT29
Procedure: as §1, §2

[3] = tested on: colon cancer cell line RKO; assay: Growth profile / viability of RKO colon cancer cells, XTT test; settings: 96 h, Control DMSO = 100%, read-out: percentage of viable cells, RKO
Procedure: as §1, §2

[4] = Viability of FS non malignant fibroblastic cells, XTT test; settings: FS cells (non-malignant fibroblastic cell line), Control DMSO = 100%, read-out: percentage of viable cells, FS
Procedure: as §1, §2

| Compound | viability at 5 µM ([1]; first HCT116 column) [%] | viability at 5 µM ([1]; second HCT116 column) [%] | viability at 5 µM ([2]; first HT29 column) [%] | viability at 5 µM ([2]; second HT29 column) [%] | viability at 5 µM ([3]; first RKO column) [%] | viability at 5 µM ([3]; second RKO column) [%] | viability at 96 h, 5 µM ([4]; first FS column) [%] | viability at 96 h, 5 µM ([4]; second FS column) [%] |
| --- | --- | --- | --- | --- | --- | --- | --- | --- |
| CN1CCN(C(=O)C2CCN(c3nn4cc(-c5ccc(N(C)CCO)cc5)nc4s3)CC2)CC1 [Compound Z522-0177, 2-{methyl[4-(2-{4-[(4-methyl-piperazin-1-yl)-carbonyl]piperidin-1-yl}imidazo-[2,1-b][1,3,4]-thiadiazol-6-yl)-phenyl]amino} ethanol] | 107 | 104 | 116 | 121 | 97 | 96 | 120 | 116 |
| Cc1c(-c2ccc(N(C)C)cc2)nc2sc(N3CCC(C(=O)N4CCN(C)CC4)CC3)nn12 [Compound Z522-0179, N,N-dimethyl-4-(5-methyl-2-{4-[(4-methyl-piperazin-1-yl)carbonyl]piperidin-1-yl}imidazo-[2,1-b][1,3,4]-thiadiazol-6-yl)-aniline] | 101 | 108 | 103 | 100 | 109 | 103 | 91 | 117 |
| Cc1c(-c2ccc(N3CCN(C)CC3)cc2)nc2sc(N3CCC(C(=O)N4CCN(C)CC4)CC3)nn12 [Compound Z522-0180, 5-methyl-2-{4-[(4-methyl-piperazin-1-yl)carbonyl]piperidin-1-yl}-6-[4-(4-methylpiperazin-1-yl)phenyl]-imidazo[2,1-b]-[1,3,4]thiadiazole] | 94 | 105 | 89 | 90 | 95 | 103 | 101 | 101 |
| Cc1c(-c2ccc(N3CCSCC3)cc2)nc2sc(N3CCC(C(=O)N4CCN(C)CC4)CC3)nn12 [Compound Z522-0184, 5-methyl-2-{4-[(4-methyl-piperazin-1-yl)carbonyl]piperidin-1-yl}-6-(4-thiomorpholin-4-ylphenyl)imidazo [2,1-b][1,3,4]-thiadiazole] | 77 | 87 | 50 | 44 | 41 | 53 | 71 | 86 |
| Cc1c(-c2ccc(N3CCCCCC3)cc2)nc2sc(N3CCC(C(=O)N4CCN(C)CC4)CC3)nn12 [Compound Z522-0185, 6-(4-azepan-1-yl-phenyl)-5-methyl-2-{4-[(4-methyl-piperazin-1-yl)carbonyl]piperidin-1-yl}imidazo-[2,1-b][1,3,4]-thiadiazole] | 40 | 42 | 19 | 11 | 14 | 15 | 92 | 94 |
| Cc1c(-c2ccc(N3CCCC(C)C3)cc2)nc2sc(N3CCC(C(=O)N4CCN(C)CC4)CC3)nn12 (stereo not drawn) [Compound Z522-0186, 5-methyl-2-{4-[(4-methyl-piperazin-1-yl)carbonyl]piperidin-1-yl}-6-[4-(3-methylpiperidin-l-yl)phenyl]-imidazo[2,1-b]-[1,3,4]thiadiazole] | 23 | 26 | 7 | 7 | 8 | 11 | 82 | 94 |
| Cc1c(-c2ccc(-n3cccn3)cc2)nc2sc(N3CCC(C(=O)N4CCN(C)CC4)CC3)nn12 [Compound Z522-0187, 5-methyl-2-{4-[(4-methyl-piperazin-1-yl)-carbonyl]piperidin-1-yl}-6-[4-(1H-pyrazol-1-yl)-phenyl]imidazo[2,1-b][1,3,4]-thiadiazole] | 110 | 97 | 99 | 111 | 56 | 56 | 92 | 94 |
| Cc1c(-c2ccc(N3CCC(C)CC3)cc2)nc2sc(N3CCC(C(=O)N4CCN(C)CC4)CC3)nn12 [Compound Z522-0190, 5-methyl-2-{4-[(4-methyl-piperazin-1-yl)-carbonyl]piperidin-1-yl}-6-[4-(4-methylpiperidin-1-yl)phenyl]-imidazo[2,1-b]-[1,3,4]thiadiazole] | 45 | 51 | 7 | 6 | 9 | 9 | 86 | 101 |
| Cc1c(-c2ccc(N3CCCCCCC3)cc2)nc2sc(N3CCC(C(=O)N4CCN(C)CC4)CC3)nn12 [Compound Z522-0191, 6-(4-azocan-1-ylphenyl)-5-methyl-2-{4-[(4-methylpiperazin-1-yl)carbonyl]-piperidin-1-yl}-imidazo[2,1-b]-[1,3,4]thiadiazole] | 39 | 41 | 12 | 10 | 23 | 35 | 103 | 101 |
| Cc1c(-c2ccc(N3CCCC3)cc2)nc2sc(N3CCC(C(=O)N4CCN(C)CC4)CC3)nn12 [Compound Z522-0195, 5-methyl-2-{4-[(4-methyl-piperazin-1-yl)carbonyl]piperidin-1-yl}-6-(4-pyrrolidin-1-ylphenyl)imidazo [2,1-b][1,3,4]-thiadiazole] | 111 | 113 | 91 | 82 | 80 | 75 | 109 | 119 |
| Cc1c(-c2ccc(N3CCOCC3)cc2)nc2sc(N3CCC(C(=O)N4CCN(C)CC4)CC3)nn12 [Compound Z522-0196, 5-methyl-2-{4-[(4-methyl-piperazin-1-yl)-carbonyl]piperidin-1-yl}-6-(4-morpholin-4-ylphenyl)imidazo [2,1-b][1,3,4]-thiadiazole] | 105 | 104 | 104 | 101 | 88 | 93 | 86 | 94 |
| Cc1c(-c2ccc(N(C)CCO)cc2)nc2sc(N3CCC(C(=O)N4CCN(C)CC4)CC3)nn12 [Compound Z522-0197, 2-{methyl[4-(5-methyl-2-{4-[(4-methylpiperazin-1-yl)carbonyl]-piperidin-1-yl}-imidazo[2,1-b]-[1,3,4]thiadiazol-6-yl)phenyl]-amino}ethanol] | 95 | 108 | 102 | 110 | 111 | 117 | 113 | 104 |
| O=C(C1CCN(c2nn3cc(-c4ccc(Cl)cc4)nc3s2)CC1)N1CCN(c2ccccn2)CC1 [Compound Z522-0200, 6-(4-chlorophenyl)-2-{4-[(4-pyridin-2-ylpiperazin-1-yl)carbonyl]piperidin-1-yl}imidazo[2,1-b][1,3,4]thiadiazole] | 94 | 88 | 92 | 98 | 81 | 78 | 95 | 103 |
